For assay [1], the system named is PKCδ-MARK2-eIF2α signaling pathway. The format is cell-based, mouse.
Description: Since the phosphorylation of MARK2 at threonine 595 is required for its positive regulation of eIF2α phosphorylation (FIG. 1E), we asked whether this form of phosphorylated MARK2 is regulated upon cytosolic protein misfolding stress.
The condition of MG132 treatment at 20 μM for 4 h was chosen for optimal induction of eIF2α phosphorylation in the analysis of these MEFs (FIG. 9D). To test whether activation of MARK2 also can be induced by other types of stress, we subjected the cells to oxidative stress, such as sodium arsenite treatment, or ER stress, such as tunicamycin treatment.
Cells were washed twice with 1× PBS and then lysed and harvested on ice in RIPA solution (50 mM Tris-HCl (pH 7.6); 150 mM NaCl; 1% NP-40; 1% SDS; 100 mM sodium fluoride; 17.5 mM β-glycerophosphate; 0.5% sodium deoxycholate; 10% glycerol). The RIPA buffer was supplemented with EDTA-free protease inhibitor cocktail (Roche, USA), phosphatase inhibitor cocktail 2 and phosphatase inhibitor cocktail 3 (Sigma-Aldrich, USA), 1 μM phenylmethanesulfonyl fluoride, and 2 μM sodium orthovanadate. Lysates were kept cold on ice, pulse-sonicated for 10 min, and then centrifuged at 12,000 g at 4° C. for 10 min. The protein content of each sample was determined by a bicinchoninic acid (BCA) assay (Thermo Fisher). Equal amounts of total protein extract were resolved by SDS-PAGE and transferred to nitrocellulose membranes (Millipore HATF08550, USA). The blots were blocked with 5% w/v BSA and 0.05% NaN3 in TBST and incubated with primary antibodies at 4° C. overnight, then finally incubated with appropriate secondary antibodies.
Assay [2] has as its target T1, MARK2 (Mus musculus, UniProt Q05512).
T1 construct: endogenous in cells; host or cells: mouse embryonic fibroblasts (MEFs)
In words: cell-based MARK2 kinase activity assay based on eIF2α phosphorylation (immunoblot of MEFs). The note with it: for phosphorylation level of eIF2α-51S: FIG. 21B; for activity in inhibiting the phosphorylation of eIF2α: comparison of seven drugs, FIG. 21E.
Description: Cells were washed twice with 1× PBS and then lysed and harvested on ice in RIPA solution (50 mM Tris-HCl (pH 7.6); 150 mM NaCl; 1% NP-40; 1% SDS; 100 mM sodium fluoride; 17.5 mM β-glycerophosphate; 0.5% sodium deoxycholate; 10% glycerol). The RIPA buffer was supplemented with EDTA-free protease inhibitor cocktail (Roche, USA), phosphatase inhibitor cocktail 2 and phosphatase inhibitor cocktail 3 (Sigma-Aldrich, USA), 1 μM phenylmethanesulfonyl fluoride, and 2 μM sodium orthovanadate. Lysates were kept cold on ice, pulse-sonicated for 10 min, and then centrifuged at 12,000 g at 4° C. for 10 min. The protein content of each sample was determined by a bicinchoninic acid (BCA) assay (Thermo Fisher). Equal amounts of total protein extract were resolved by SDS-PAGE and transferred to nitrocellulose membranes (Millipore HATF08550, USA). The blots were blocked with 5% w/v BSA and 0.05% NaN3 in TBST and incubated with primary antibodies at 4° C. overnight, then finally incubated with appropriate secondary antibodies. The antibodies used include those against eIF2α (Cell Signaling 5324, USA), peIF2α (Cell Signaling 9721), PERK (Cell Signaling 3192), pPERK-^980T (Cell Signaling 3179), PKR (Santa Cruz SC-708 and SC-6282), HRI (Millipore 07-728), GCN2 (Cell Signaling 3302), pGCN2-899T (Abcam ab75836, USA), ATF4 (Cell Signaling 11815), HSP90 (Cell Signaling 8165), HSP70 (Cell Signaling 4872), Flag (Sigma F1804), Actin (Santa Cruz SC-47778), Tubulin (Proteintech 10068-1-AP, USA), PKCδ (Santa Cruz SC-937; Cell Signaling 2058), pPKCδ-311Y (Cell Signaling 2055), pPKCδ-^505T (Cell Signaling 9374), MARK2 (Abcam ab135816; Santa Cruz SC-365405), pMARK2-^595T (Abcam ab34751), PP1a (Cell Signaling 2582), pPP1α-^320T (Cell Signaling 2581), and puromycin (Millipore MABE343). Images were captured with an Odyssey imager and analyzed with Image Studio software (Licor 9120, USA).

The subject of assay [3] is interaction between PKCδ and HSP90. Kind of assay: coimmunoprecipitation of HSP90 by anti-PKCδ antibody in MEFs. Format: cell-based, mouse. To be noted: MEF cells treated with MG132. The source says: We next investigated how the PKC&-MARK2-eIF2α signaling pathway senses protein misfolding stress. Since misfolded proteins, including SOD1, are prone to interact with molecular chaperone proteins, Wang et al., 2009; Tummala et al., 2005, we reasoned that the upstream regulator PKCδ could potentially interact with a molecular chaperone and that disruption of this interaction by misfolded proteins during proteotoxic stress might be a mechanism to account for the activation of the PKCδ kinase. We searched a protein-protein interaction database, Szklarczyk et al., 2015, and identified several candidate interactors of PKCδ, including HSP90, HSP90a, and HSP70. To evaluate potential interactions between PKCδ and these molecular chaperones, we performed coimmunoprecipitation experiments with endogenous proteins in MEF cells. After immunoprecipitation of PKCδ, only HSP90 was pulled down by PKCδ (FIG. 3A). When the level of PKCδ protein was elevated via stable expression in MEF cells, more HSP90 protein could be coimmunoprecipitated by PKCδ. Conversely, depletion of PKCδ from MEFs or use of an IgG control instead of the anti-PKCδ antibody abolished the coimmunoprecipitation of HSP90, confirming the specific interaction between PKCδ and HSP90 (FIG. 3A). […]

Assay [4] concerns MARK2. The note with it: previous report; cited from earlier work.
Where [5] appears, read: WT and 4-KO MEFs, sodium arsenite 200 μM, 1 h.

Where two headings read alike, the source gives them in different places. Where a SMILES comes first, the peptide text is derived from it. The star is where a group is joined. Cbz = O=C(OCc1ccccc1)*

T1 sequence (Q05512 whole entry): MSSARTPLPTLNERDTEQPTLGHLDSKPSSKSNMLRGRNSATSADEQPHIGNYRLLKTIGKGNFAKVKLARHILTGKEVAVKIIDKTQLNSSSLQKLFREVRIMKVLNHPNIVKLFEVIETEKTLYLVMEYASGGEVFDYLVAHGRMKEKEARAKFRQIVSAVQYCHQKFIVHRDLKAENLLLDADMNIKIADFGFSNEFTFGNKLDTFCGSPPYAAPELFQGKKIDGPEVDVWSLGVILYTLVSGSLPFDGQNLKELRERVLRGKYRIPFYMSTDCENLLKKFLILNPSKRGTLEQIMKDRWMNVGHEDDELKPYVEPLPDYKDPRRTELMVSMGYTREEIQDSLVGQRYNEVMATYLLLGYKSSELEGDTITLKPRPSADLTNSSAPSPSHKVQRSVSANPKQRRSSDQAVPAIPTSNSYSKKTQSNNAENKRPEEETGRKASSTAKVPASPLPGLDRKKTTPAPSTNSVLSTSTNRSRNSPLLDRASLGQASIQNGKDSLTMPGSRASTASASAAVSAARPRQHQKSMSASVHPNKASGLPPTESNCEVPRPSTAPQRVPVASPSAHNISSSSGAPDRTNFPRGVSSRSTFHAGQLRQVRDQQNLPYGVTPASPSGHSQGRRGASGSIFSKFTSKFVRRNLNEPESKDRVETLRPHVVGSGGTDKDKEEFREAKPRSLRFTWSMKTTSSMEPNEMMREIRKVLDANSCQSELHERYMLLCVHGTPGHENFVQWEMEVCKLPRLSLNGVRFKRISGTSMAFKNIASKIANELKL

As to `O=[As]O` [sodium arsenite], in assay [1] (setting [5]), the “phosphorylation of MARK2-595T” value is reported as “able to induce the phosphorylation” and the “phosphorylation of eIF2α-51S” value was “able to induce the phosphorylation”.

On to `COc1cc2ncnc(Nc3ccc(F)c(Cl)c3)c2cc1OCCCN1CCOCC1` [Gefitinib], for which the “phosphorylation level of eIF2α-51S” value on MARK2 [2] (MEFs, 40 μM, 1 hr, versus DMSO control) is on record as “needs a higher concentration than CHIR99021 to achieve the similar effect”. Further, the “activity in inhibiting the phosphorylation of eIF2α” value at MARK2 [2] was “low activity”.

In the case of `CC(C)C[C@@H](C=O)NC(=O)[C@H](CC(C)C)NC(=O)[C@H](CC(C)C)NC(=O)OCc1ccccc1` [MG132] (Cbz-Leu-Leu-Leu-aldehyde), in assay [1] (MEF cells treated with MG132), the “level of the ATF4 protein” value is recorded as “increased the level of the ATF4 protein”, the “levels of phosphorylated MARK2-595T” value was “substantial increase” and the “levels of phosphorylated eIF2α-51S” value is “corresponding increase”. In assay [1] (MEFs, MG132 20 μM time course), the “time at which phosphorylation of eIF2α-51S peaked” value is given as “around 4 h”. In assay [3], the “interaction between PKCδ and HSP90” value was “completely abolished the interaction between PKCδ and HSP90”.

Take `Cc1c[nH]c(-c2cnc(NCCNc3ccc(C#N)cn3)nc2-c2ccc(Cl)cc2Cl)n1` [CHIR99021]: the “phosphorylation level of eIF2α-51S” value at MARK2 [2] (MEFs, 20 μM, 1 hr, versus DMSO control) was “decreased the phosphorylation level of eIF2α-^51S”. In addition, the “levels of phosphorylated eIF2α-51S” value at MARK2 [2] (at low concentrations) was “substantially lowering the levels of phosphorylated eIF2α-^51S”. Also, at MARK2 [2], the “activity in inhibiting the phosphorylation of eIF2α” value is given as “high activity”.

Turning to `Cn1cc(C2=C(c3ccc(Cl)cc3Cl)C(=O)NC2=O)c2ccccc21` [SB216763], the “phosphorylation of eIF2α-51S” value on MARK2 [2] (MEFs, 20 μM, 1 hr, versus DMSO control, FIG. 21A) was “substantially reduces the phosphorylation of eIF2α-^51S”. Also, the “increase in the levels of phosphorylated eIF2α-51S in response to MG132” value at MARK2 [2] (cell co-treatment with MG132) is “substantially diminished the increase”. The “activity in inhibiting the phosphorylation of eIF2α” value at MARK2 [2] was “high activity for inhibiting eIF2α phosphorylation”; at MARK2 [2] (listed as SB-216763) it was “high activity”. For the same compound, in the assay on MARK2 [4], the MARK kinase function result was “inhibited MARK kinase function”.

As to tunicamycin, in assay [1] (MEFs, tunicamycin 24 μg/ml, 2 h), the “phosphorylation of MARK2-595T” value was “no effect on the phosphorylation of MARK2-^595T”. In addition, the “phosphorylation of eIF2α-51S” value in assay [1] (WT and 4-KO MEFs, tunicamycin 24 μg/ml, 2 h) was “induced the phosphorylation of eIF2α-^51S in WT MEFs but not in the cells lacking the 4 previously known kinases”.

Source of the values: patent publication US20250186373A1, “TARGETING AN EUKARYOTIC INITIATION FACTOR 2 ALPHA KINASE TO REGULATE TRANSLATION UNDER STRESS” (The Johns Hopkins University, priority 2022, published 2025).
